Measured values published in ChEMBL document CHEMBL2440080, “Synthesis and biological evaluation of novel acylhydrazone derivatives as potential antitumor agents” (Bioorg Med Chem, 2013).

Assays:
KM12 = assay: Cytotoxicity against human KM12 cells after 48 hrs by sulforhodamine B assay; type: functional; conditions: KM12, 48 h
786-0 = assay: Cytotoxicity against human 786-0 cells after 48 hrs by sulforhodamine B assay; type: functional; conditions: 786-0, 48 h
ACHN = assay: Cytotoxicity against human ACHN cells after 48 hrs by sulforhodamine B assay; type: functional
HCC 2998 = assay: Cytotoxicity against human HCC2998 cells after 48 hrs by sulforhodamine B assay; type: functional; conditions: HCC 2998, 48 h
MCF7 = assay: Cytotoxicity against human MCF7 cells after 48 hrs by sulforhodamine B assay; type: functional; conditions: MCF7, 48 h
OVCAR-4 = assay: Cytotoxicity against human OVCAR4 cells after 48 hrs by sulforhodamine B assay; type: functional; conditions: OVCAR-4, 48 h
SK-MEL-5 = assay: Cytotoxicity against human SK-MEL-5 cells after 48 hrs by sulforhodamine B assay; type: functional; conditions: SK-MEL-5, 48 h
UO-31 = assay: Cytotoxicity against human UO31 cells after 48 hrs by sulforhodamine B assay; type: functional; conditions: UO-31, 48 h
UACC-62 = assay: Cytotoxicity against human UACC62 cells after 48 hrs by sulforhodamine B assay; type: functional; conditions: UACC-62, 48 h
SF-295 = assay: Cytotoxicity against human SF295 cells after 48 hrs by sulforhodamine B assay; type: functional; conditions: SF-295, 48 h
NCI/ADR-RES = assay: Cytotoxicity against human NCI/ADR-RES cells after 48 hrs by sulforhodamine B assay; type: functional
U-251 = assay: Cytotoxicity against human U251 cells after 48 hrs by sulforhodamine B assay; type: functional; conditions: U-251, 48 h
SK-MEL-2 = assay: Cytotoxicity against human SK-MEL-2 cells after 48 hrs by sulforhodamine B assay; type: functional; conditions: SK-MEL-2, 48 h
CCRF-CEM = assay: Cytotoxicity against human CCRF-CEM cells after 48 hrs by sulforhodamine B assay; type: functional
A498 = assay: Cytotoxicity against human A498 cells after 48 hrs by sulforhodamine B assay; type: functional; conditions: A498, 48 h
[1] = Cytotoxicity against human EKVX cells after 48 hrs by sulforhodamine B assay; type: functional
NCI-H460 = assay: Cytotoxicity against human NCI-H460 cells after 48 hrs by sulforhodamine B assay; type: functional; conditions: NCI-H460, 48 h
SNB-75 = assay: Cytotoxicity against human SNB75 cells after 48 hrs by sulforhodamine B assay; type: functional; conditions: SNB-75, 48 h
SN12C = assay: Cytotoxicity against human SN12C cells after 48 hrs by sulforhodamine B assay; type: functional
NCI-H322M = assay: Cytotoxicity against human NCI-H322M cells after 48 hrs by sulforhodamine B assay; type: functional
K562 = assay: Cytotoxicity against human K562 cells after 48 hrs by sulforhodamine B assay; type: functional; conditions: K562, 48 h
A549 = assay: Cytotoxicity against human A549/ATCC cells after 48 hrs by sulforhodamine B assay; type: functional; conditions: A549, 48 h
HT-29 = assay: Cytotoxicity against human HT-29 cells after 48 hrs by sulforhodamine B assay; type: functional; conditions: HT-29, 48 h
T47D = assay: Cytotoxicity against human T47D cells after 48 hrs by sulforhodamine B assay; type: functional
SF-268 = assay: Cytotoxicity against human SF268 cells after 48 hrs by sulforhodamine B assay; type: functional; conditions: SF-268, 48 h
OVCAR-3 = assay: Cytotoxicity against human OVCAR3 cells after 48 hrs by sulforhodamine B assay; type: functional; conditions: OVCAR-3, 48 h
OVCAR-8 = assay: Cytotoxicity against human OVCAR8 cells after 48 hrs by sulforhodamine B assay; type: functional; conditions: OVCAR-8, 48 h
OVCAR-5 = assay: Cytotoxicity against human OVCAR5 cells after 48 hrs by sulforhodamine B assay; type: functional; conditions: OVCAR-5, 48 h
HL-60(TB) = assay: Cytotoxicity against human HL-60(TB) cells after 48 hrs by sulforhodamine B assay; type: functional; conditions: HL-60, 48 h
SW-620 = assay: Cytotoxicity against human SW620 cells after 48 hrs by sulforhodamine B assay; type: functional; conditions: SW-620, 48 h
BT-549 = assay: Cytotoxicity against human BT549 cells after 48 hrs by sulforhodamine B assay; type: functional; conditions: BT-549, 48 h
SR = assay: Cytotoxicity against human SR cells after 48 hrs by sulforhodamine B assay; type: functional
MOLT-4 = assay: Cytotoxicity against human MOLT4 cells after 48 hrs by sulforhodamine B assay; type: functional; conditions: MOLT-4, 48 h
HCT-15 = assay: Cytotoxicity against human HCT15 cells after 48 hrs by sulforhodamine B assay; type: functional; conditions: HCT-15, 48 h
NCI-H522 = assay: Cytotoxicity against human NCI-H522 cells after 48 hrs by sulforhodamine B assay; type: functional; conditions: NCI-H522, 48 h
Malme-3M = assay: Cytotoxicity against human MALME-3M cells after 48 hrs by sulforhodamine B assay; type: functional
UACC-257 = assay: Cytotoxicity against human UACC257 cells after 48 hrs by sulforhodamine B assay; type: functional; conditions: UACC-257, 48 h
TK-10 = assay: Cytotoxicity against human TK10 cells after 48 hrs by sulforhodamine B assay; type: functional; conditions: TK-10, 48 h
SNB-19 = assay: Cytotoxicity against human SNB19 cells after 48 hrs by sulforhodamine B assay; type: functional; conditions: SNB-19, 48 h
HOP-92 = assay: Cytotoxicity against human HOP92 cells after 48 hrs by sulforhodamine B assay; type: functional; conditions: HOP-92, 48 h
SK-MEL-28 = assay: Cytotoxicity against human SK-MEL-28 cells after 48 hrs by sulforhodamine B assay; type: functional; conditions: SK-MEL-28, 48 h
SF-539 = assay: Cytotoxicity against human SF539 cells after 48 hrs by sulforhodamine B assay; type: functional; conditions: SF-539, 48 h
MDA-MB-468 = assay: Cytotoxicity against human MDA-MB-468 cells after 48 hrs by sulforhodamine B assay; type: functional; conditions: MDA-MB-468, 48 h
NCI-H226 = assay: Cytotoxicity against human NCI-H226 cells after 48 hrs by sulforhodamine B assay; type: functional; conditions: NCI-H226, 48 h
DU-145 = assay: Cytotoxicity against human DU145 cells after 48 hrs by sulforhodamine B assay; type: functional; conditions: DU-145, 48 h
HOP-62 = assay: Cytotoxicity against human HOP62 cells after 48 hrs by sulforhodamine B assay; type: functional; conditions: HOP-62, 48 h
IGROV-1 = assay: Cytotoxicity against human IGROV1 cells after 48 hrs by sulforhodamine B assay; type: functional; conditions: IGROV-1, 48 h
COLO 205 = assay: Cytotoxicity against human COLO205 cells after 48 hrs by sulforhodamine B assay; type: functional; conditions: COLO 205, 48 h
CAKI-1 = assay: Cytotoxicity against human CAKI-1 cells after 48 hrs by sulforhodamine B assay; type: functional; conditions: CAKI-1, 48 h
MDA-MB-231 = assay: Cytotoxicity against human MDA-MB-231 cells after 48 hrs by sulforhodamine B assay; type: functional; conditions: MDA-MB-231, 48 h
HCT-116 = assay: Cytotoxicity against human HCT116 cells after 48 hrs by sulforhodamine B assay; type: functional; conditions: HCT-116, 48 h
SK-OV-3 = assay: Cytotoxicity against human SKOV3 cells after 48 hrs by sulforhodamine B assay; type: functional; conditions: SK-OV-3, 48 h
NCI-H23 = assay: Cytotoxicity against human NCI-H23 cells after 48 hrs by sulforhodamine B assay; type: functional; conditions: NCI-H23, 48 h
MDA-MB-435 = assay: Cytotoxicity against human MDA-MB-435 cells after 48 hrs by sulforhodamine B assay; type: functional; conditions: MDA-MB-435, 48 h
RXF 393 = assay: Cytotoxicity against human RXF393 cells after 48 hrs by sulforhodamine B assay; type: functional; conditions: RXF 393, 48 h
M14 = assay: Cytotoxicity against human M14 cells after 48 hrs by sulforhodamine B assay; type: functional; conditions: M14, 48 h
[2] = Cytotoxicity against human Hs 578T cells after 48 hrs by sulforhodamine B assay; type: functional
PC-3 = assay: Cytotoxicity against human PC3 cells after 48 hrs by sulforhodamine B assay; type: functional; conditions: PC-3, 48 h
LOX IMVI = assay: Cytotoxicity against human LOXIMVI cells after 48 hrs by sulforhodamine B assay; type: functional
RPMI-8226 = assay: Cytotoxicity against human RPMI8226 cells after 48 hrs by sulforhodamine B assay; type: functional; conditions: RPMI-8226, 48 h
Mus musculus = assay: Toxicity in athymic nude mouse assessed as survival at 400 mg/kg, ip measured after 2 weeks; type: organism-based; parameters: dose 400 mg/kg, route intraperitoneal; conditions: in vivo, 336 h

CCN(CC)c1ccc(/C=N/NC(=O)Cc2ccc(Nc3ccnc(C(F)(F)F)c3)cc2)c(O)c1
GI50 (KM12): 676 nM
GI50 (786-0): 437 nM
GI50 (ACHN): 398 nM
GI50 (HCC 2998): 646 nM
GI50 (MCF7): 407 nM
GI50 (OVCAR-4): 513 nM
GI50 (SK-MEL-5): 309 nM
GI50 (UO-31): 389 nM
GI50 (UACC-62): 398 nM
GI50 (SF-295): 501 nM
GI50 (NCI/ADR-RES): 537 nM
GI50 (U-251): 501 nM
GI50 (SK-MEL-2): 4900 nM
GI50 (CCRF-CEM): 316 nM
GI50 (A498): 5010 nM
GI50 [1]: 398 nM
GI50 (NCI-H460): 316 nM
GI50 (SNB-75): 2510 nM
GI50 (SN12C): 977 nM
GI50 (NCI-H322M): 398 nM
GI50 (K562): 550 nM
GI50 (A549): 832 nM
GI50 (HT-29): 676 nM
GI50 (T47D): 631 nM
GI50 (SF-268): 537 nM
GI50 (OVCAR-3): 794 nM
GI50 (OVCAR-8): 501 nM
GI50 (OVCAR-5): 776 nM
GI50 (HL-60(TB)): 339 nM
GI50 (SW-620): 813 nM
GI50 (BT-549): 1350 nM
GI50 (SR): 251 nM
GI50 (MOLT-4): 501 nM
GI50 (HCT-15): 407 nM
GI50 (NCI-H522): 575 nM
GI50 (Malme-3M): 1000 nM
GI50 (UACC-257): 1910 nM
GI50 (TK-10): 417 nM
GI50 (SNB-19): 525 nM
GI50 (HOP-92): 1740 nM
GI50 (SK-MEL-28): 813 nM
GI50 (SF-539): 479 nM
GI50 (MDA-MB-468): 389 nM
GI50 (NCI-H226): 676 nM
GI50 (DU-145): 813 nM
GI50 (HOP-62): 501 nM
GI50 (IGROV-1): 501 nM
GI50 (COLO 205): 437 nM
GI50 (CAKI-1): 398 nM
GI50 (MDA-MB-231): 1120 nM
GI50 (HCT-116): 398 nM
GI50 (SK-OV-3): 363 nM
GI50 (NCI-H23): 1050 nM
GI50 (MDA-MB-435): 912 nM
GI50 (RXF 393): 1000 nM
GI50 (M14): 525 nM
GI50 [2]: 2190 nM
GI50 (PC-3): 2000 nM
GI50 (LOX IMVI): 398 nM

CCN(CC)c1ccc(/C=N/NC(=O)c2ccccc2Nc2ccnc(C(F)(F)F)c2)c(O)c1
GI50 (KM12): 251 nM
GI50 (786-0): 182 nM
GI50 (ACHN): 79.4 nM
GI50 (HCC 2998): 191 nM
GI50 (MCF7): 288 nM
GI50 (OVCAR-4): 87.1 nM
GI50 (SK-MEL-5): 158 nM
GI50 (UO-31): 141 nM
GI50 (UACC-62): 214 nM
GI50 (SF-295): 251 nM
GI50 (NCI/ADR-RES): 263 nM
GI50 (U-251): 126 nM
GI50 (SK-MEL-2): 501 nM
GI50 (CCRF-CEM): 31.6 nM
GI50 (A498): 178 nM
GI50 [1]: 158 nM
GI50 (NCI-H460): 67.6 nM
GI50 (RPMI-8226): 41.7 nM
GI50 (SNB-75): 209 nM
GI50 (SN12C): 240 nM
GI50 (NCI-H322M): 100 nM
GI50 (K562): 380 nM
GI50 (A549): 309 nM
GI50 (HT-29): 347 nM
GI50 (T47D): 550 nM
GI50 (SF-268): 69.2 nM
GI50 (OVCAR-3): 126 nM
GI50 (OVCAR-8): 209 nM
GI50 (OVCAR-5): 200 nM
GI50 (HL-60(TB)): 251 nM
GI50 (SW-620): 363 nM
GI50 (BT-549): 347 nM
GI50 (SR): 138 nM
GI50 (MOLT-4): 79.4 nM
GI50 (HCT-15): 50.1 nM
GI50 (NCI-H522): 263 nM
GI50 (Malme-3M): 339 nM
GI50 (UACC-257): 324 nM
GI50 (TK-10): 166 nM
GI50 (SNB-19): 479 nM
GI50 (HOP-92): 251 nM
GI50 (SK-MEL-28): 240 nM
GI50 (SF-539): 245 nM
GI50 (MDA-MB-468): 151 nM
GI50 (NCI-H226): 151 nM
GI50 (DU-145): 126 nM
GI50 (HOP-62): 105 nM
GI50 (IGROV-1): 79.4 nM
GI50 (COLO 205): 174 nM
GI50 (CAKI-1): 63.1 nM
GI50 (MDA-MB-231): 195 nM
GI50 (HCT-116): 100 nM
GI50 (SK-OV-3): 174 nM
GI50 (NCI-H23): 513 nM
GI50 (MDA-MB-435): 457 nM
GI50 (RXF 393): 251 nM
GI50 (M14): 129 nM
GI50 [2]: 871 nM
Activity (Mus musculus): Non-toxic
GI50 (PC-3): 263 nM
GI50 (LOX IMVI): 79.4 nM
